# Results: article PMC11597353, “Synthesis of Novel Gefitinib-Conjugated 1,2,3-Triazole Derivatives and Their Effect of Inducing DNA Damage and Apoptosis in Tumor Cells” (Molecules, 2024)
# Like-named read-outs stand apart in the source and are kept apart here.
# Experiments:
# EGFR T790M = test system: EGFR T790M; parameters: method as in PMID 37611529; conditions: cited from earlier work
# VEGFR-2 = test system: VEGFR-2; parameters: method as in PMID 37611529; conditions: cited from earlier work
# HepG2 cells [1] = experiment: CCK8 cell viability / IC50 assay on HepG2 cells; conditions: for % Cell Viability (10 μM): 72 h; for IC50: read-out: HepG2, IC50 (μM) 72 h
# HepG2 cells [2] = test system: HepG2 cells; parameters: method as in PMID 34237623, PMID 38675717; conditions: read-out: IC50, inhibitory activity against HepG2 cells; cited from earlier work
# HepG2 cells [3] = test system: HepG2 cells; parameters: method as in PMID 32745759; conditions: read-out: IC50, growth of HepG2 cells; cited from earlier work
# MOLT-4 = test system: MOLT-4; parameters: method as in PMID 31078767; conditions: MOLT-4, MTT method; cited from earlier work
# HT-29 = test system: HT-29; parameters: method as in PMID 31078767; conditions: HT-29, MTT method; cited from earlier work
# MCF-7 = test system: MCF-7; parameters: method as in PMID 31078767; conditions: MCF-7, MTT method; cited from earlier work
# [4] = test system: breast cancer cells (MDA-MB-468); parameters: method as in PMID 31586710; conditions: 2.5 μM; cited from earlier work
Compound,melting point [°C],IC50 (HepG2 cells [1]) [µM],% Cell Viability (10 μM) (HepG2 cells [1]) [%],also measured
NS(=O)(=O)c1ccc(-n2c(SCC(=O)Nc3cccc4ccccc34)nc3ccc(I)cc3c2=O)cc1 [Compound 7],–,–,–,IC50 (EGFR T790M): 0.0728 µM; IC50 (VEGFR-2): 0.0523 µM
"COc1cc2ncnc(Nc3cccc(-c4cn(Cc5ccccc5F)nn4)c3)c2cc1OCCCN1CCOCC1 [Compound 11k, N-(3-(1-(2-fluorobenzyl)-1H-1,2,3-triazol-4-yl)phenyl)-7-methoxy-6-(3-morpholinopropoxy)quinazolin-4-amine]",184 to 186,6.21 ± 0.24,14.72 ± 2.29,–
"COc1cc2ncnc(Nc3cccc(-c4cn(Cc5cc(F)ccc5C#N)nn4)c3)c2cc1OCCCN1CCOCC1 [Compound 11r, 4-fluoro-2-((4-(3-((7-methoxy-6-(3-morpholinopropoxy)quinazolin-4-yl)amino)phenyl)-1H-1,2,3-triazol-1-yl)methyl)benzonitrile]",164 to 166,6.68 ± 0.11,9.11 ± 1.63,–
COc1cc(C(=O)c2nc3ccccc3c(=O)[nH]2)cc(OC)c1OC [Compound 8],–,–,–,IC50 (HepG2 cells [2]): 1.22 µM
"COc1cc2ncnc(Nc3cccc(-c4cn(Cc5cc(Br)cc(Br)c5)nn4)c3)c2cc1OCCCN1CCOCC1 [Compound 11c, N-(3-(1-(3,5-dibromobenzyl)-1H-1,2,3-triazol-4-yl)phenyl)-7-methoxy-6-(3-morpholinopropoxy)quinazolin-4-amine]",–,–,37.72 ± 2.38,–
COc1cc2ncnc(Nc3ccc(F)c(Cl)c3)c2cc1OCCCN1CCOCC1 [Gefitinib],–,–,31.03 ± 2.42,–
Cc1cc(C)nc(NS(=O)(=O)c2ccc(-n3cc(CCc4nc5ccccc5s4)nn3)cc2)n1 [Compound 4],–,–,–,IC50 (HepG2 cells [3]): 1.49 µM
O=C1C=C(NCc2cn(Cc3ccc(C(F)(F)F)cc3)nn2)C(=O)c2ccccc21 [Compound 2],–,–,–,IC50 (MOLT-4): 8.4 µM; IC50 (HT-29): 6.8 µM; IC50 (MCF-7): 10.4 µM
"COc1cc2ncnc(Nc3cccc(-c4cn(Cc5ccccc5C#N)nn4)c3)c2cc1OCCCN1CCOCC1 [Compound 11b, 2-((4-(3-((7-methoxy-6-(3-morpholinopropoxy)quinazolin-4-yl)amino)phenyl)-1H-1,2,3-triazol-1-yl)methyl)benzonitrile]",167 to 168,–,59.50 ± 2.74,–
"COc1cc2ncnc(Nc3cccc(-c4cn(Cc5cccc(Cl)c5)nn4)c3)c2cc1OCCCN1CCOCC1 [Compound 11n, N-(3-(1-(3-chlorobenzyl)-1H-1,2,3-triazol-4-yl)phenyl)-7-methoxy-6-(3-morpholinopropoxy)quinazolin-4-amine]",164 to 165,6.1 ± 0.06,7.68 ± 0.34,–
"COc1cc2ncnc(Nc3cccc(-c4cn(Cc5ccccc5[N+](=O)[O-])nn4)c3)c2cc1OCCCN1CCOCC1 [Compound 11i, 7-methoxy-6-(3-morpholinopropoxy)-N-(3-(1-(2-nitrobenzyl)-1H-1,2,3-triazol-4-yl)phenyl)quinazolin-4-amine]",–,–,70.10 ± 3.40,–
"COc1cc2ncnc(Nc3cccc(-c4cn(Cc5ccc(F)c(Cl)c5)nn4)c3)c2cc1OCCCN1CCOCC1 [Compound 11g, N-(3-(1-(3-chloro-4-fluorobenzyl)-1H-1,2,3-triazol-4-yl)phenyl)-7-methoxy-6-(3-morpholinopropoxy)quinazolin-4-amine]",179 to 181,5.23 ± 0.2,6.50 ± 0.88,–
O=C(C1=Cc2cc3ccccc3n2Cc2cnnn21)c1ccccc1 [Compound 3],–,–,–,colony formation in breast cancer cells (MDA-MB-468) [4]: completely inhibited

# Continued, in another order:
melting point [°C],IC50 (HepG2 cells [1]) [µM],Compound,% Cell Viability (10 μM) (HepG2 cells [1]) [%],also measured
165 to 167,5.14 ± 0.25,"COc1cc2ncnc(Nc3cccc(-c4cn(Cc5ccc(Cl)cc5)nn4)c3)c2cc1OCCCN1CCOCC1 [Compound 11o, N-(3-(1-(4-chlorobenzyl)-1H-1,2,3-triazol-4-yl)phenyl)-7-methoxy-6-(3-morpholinopropoxy)quinazolin-4-amine]",8.06 ± 0.88,–
–,4.53 ± 0.37,"COc1cc2ncnc(Nc3cccc(-c4cn(Cc5ccc(C(F)(F)F)cc5)nn4)c3)c2cc1OCCCN1CCOCC1 [Compound 11l, 7-methoxy-6-(3-morpholinopropoxy)-N-(3-(1-(4-(trifluoromethyl)benzyl)-1H-1,2,3-triazol-4-yl)phenyl)quinazolin-4-amine]",5.85 ± 1.15,–
168 to 169,–,"COc1cc2ncnc(Nc3cccc(-c4cn(Cc5ccc(C)cc5)nn4)c3)c2cc1OCCCN1CCOCC1 [Compound 11d, 7-methoxy-N-(3-(1-(4-methylbenzyl)-1H-1,2,3-triazol-4-yl)phenyl)-6-(3-morpholinopropoxy)quinazolin-4-amine]",36.48 ± 2.89,–
167 to 170,–,"COc1cc(Cn2cc(-c3cccc(Nc4ncnc5cc(OC)c(OCCCN6CCOCC6)cc45)c3)nn2)cc(OC)c1 [Compound 11s, N-(3-(1-(3,5-dimethoxybenzyl)-1H-1,2,3-triazol-4-yl)phenyl)-7-methoxy-6-(3-morpholinopropoxy)quinazolin-4-amine]",22.89 ± 1.97,–
169 to 171,10.1 ± 0.14,"COc1cc2ncnc(Nc3cccc(-c4cn(Cc5ccccc5C)nn4)c3)c2cc1OCCCN1CCOCC1 [Compound 11p, 7-methoxy-N-(3-(1-(2-methylbenzyl)-1H-1,2,3-triazol-4-yl)phenyl)-6-(3-morpholinopropoxy)quinazolin-4-amine]",17.36 ± 1.24,–
169 to 170,5.15 ± 0.31,"COc1cc2ncnc(Nc3cccc(-c4cn(Cc5ccc(Br)cc5F)nn4)c3)c2cc1OCCCN1CCOCC1 [Compound 11f, N-(3-(1-(4-bromo-2-fluorobenzyl)-1H-1,2,3-triazol-4-yl)phenyl)-7-methoxy-6-(3-morpholinopropoxy)quinazolin-4-amine]",5.72 ± 0.40,–
–,4.04 ± 0.21,"COc1cc2ncnc(Nc3cccc(-c4cn(Cc5cc(F)ccc5Br)nn4)c3)c2cc1OCCCN1CCOCC1 [Compound 11e, N-(3-(1-(2-bromo-5-fluorobenzyl)-1H-1,2,3-triazol-4-yl)phenyl)-7-methoxy-6-(3-morpholinopropoxy)quinazolin-4-amine]",7.03 ± 0.16,–
177 to 178,5.49 ± 0.21,"COc1cc2ncnc(Nc3cccc(-c4cn(Cc5ccc(Br)cc5)nn4)c3)c2cc1OCCCN1CCOCC1 [Compound 11a, N-(3-(1-(4-bromobenzyl)-1H-1,2,3-triazol-4-yl)phenyl)-7-methoxy-6-(3-morpholinopropoxy)quinazolin-4-amine]",7.07 ± 0.49,–
171 to 173,–,"COc1cc2ncnc(Nc3cccc(-c4cn(Cc5ccc([N+](=O)[O-])cc5)nn4)c3)c2cc1OCCCN1CCOCC1 [Compound 11j, 7-methoxy-6-(3-morpholinopropoxy)-N-(3-(1-(4-nitrobenzyl)-1H-1,2,3-triazol-4-yl)phenyl)quinazolin-4-amine]",47.33 ± 2.17,–
177 to 180,3.91 ± 0.08,"COc1cc2ncnc(Nc3cccc(-c4cn(Cc5c(F)cccc5Cl)nn4)c3)c2cc1OCCCN1CCOCC1 [Compound 11h, N-(3-(1-(2-chloro-6-fluorobenzyl)-1H-1,2,3-triazol-4-yl)phenyl)-7-methoxy-6-(3-morpholinopropoxy)quinazolin-4-amine]",6.80 ± 0.14,–
172 to 173,5.38 ± 0.57,"COc1cc2ncnc(Nc3cccc(-c4cn(Cc5cc(C)cc(C)c5)nn4)c3)c2cc1OCCCN1CCOCC1 [Compound 11q, N-(3-(1-(3,5-dimethylbenzyl)-1H-1,2,3-triazol-4-yl)phenyl)-7-methoxy-6-(3-morpholinopropoxy)quinazolin-4-amine]",7.14 ± 0.95,–
